Measured values from PubChem BioAssay AID179 (DTP/NCI, 2004).
Activity calls are given as the source filed them.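 How the source made its calls: active means compounds giving half or more protection of infected cells from virus-caused growth loss, again on retest; inactive means the rest.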 Where a SMILES comes first, the peptide text is derived from it. The star is where a group is joined. Boc = CC(C)(C)OC(=O)*

Tested on: CEM cells HIV-1 protection, formazan growth assay
Experiment: NCI AIDS Antiviral Assay
Conditions: for IC50: measured here: growth of uninfected CEM cells
Method in brief: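 Five concentrations of each compound were applied to infected and uninfected human CEM cells. Protection from HIV-1 was judged from growth measured with a soluble formazan assay.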

Structure (SMILES) | EC50 [µM] | IC50 [µM] | outcome
Cc1ccc2c(c1)sc1nnc(Cl)n12 | > 200 | > 200 | 
CCOC(=O)N1CCN(C(=O)COc2cc3c(O)c4c(O)c(C)c5c(c24)C(=O)C(C)(O/C=C/C(OC)C(C)C(OC(C)=O)C(C)C(O)C(C)C(O)C(C)/C=C/C=C(\C)C(=O)N3)O5)CC1 (configuration not stated) | > 200 | 13.5 | 
CN(C)c1nc2n(CCO)ccnc-2c(=O)n1 | > 100 | > 100 | 
COc1ccccc1NC(=O)C1=C(C)NC(C)=C(C(=O)Nc2ccccc2OC)C1c1ccc(N(C)C)cc1 | > 42.7 | 29.5 | 
O=C(/C=C(/SS/C(=C/C(=O)c1ccccc1)c1ccccc1)c1ccccc1)c1ccccc1 | > 200 | 2.51 | 
c1ccc(CNc2nnc(NCc3ccccc3)c3c2ncn3Cc2ccccc2)cc1 |  |  | inactive
COc1cccc2ccc3c(c12)C(O)OC31CCc2c(C)cccc21 (configuration not stated) | > 85.1 | 42.7 | 
C[PH+](C)C.C[PH+](C)C.[C-]#[O+].[C-]#[O+].[C-]#[O+].[Fe] | > 200 | 49 | 
CC/C=C\C/C=C\C1CC(=O)NCCCNCCCCN1 (configuration not stated) |  |  | inactive
Cc1ccc(C(=O)Cc2nc3c([nH]c2=O)c(C)nn3-c2ccccc2)c(C)c1 | > 200 | > 200 | 
O=C(NN1C(=O)C(Cl)C1c1cccc(O)c1)c1ccccc1O (configuration not stated) | > 151 | 141 | 
O=C(O)CN(CC(=O)O)Cc1cc(C#Cc2ccc(C#Cc3ccccc3)cc2)cc(CN(CC(=O)O)CC(=O)O)n1 | > 77.6 | 19.5 | 
O=c1[nH]c2nn(-c3ccccc3)cc2c(=O)n1O | > 200 | 3.31 | 
Nc1ccc(/C=C/c2ccc(N=Nc3cc(S(=O)(=O)O)c4cccnc4c3O)cc2S(=O)(=O)O)c(S(=O)(=O)O)c1 | 34.7 | > 200 | 
CCC(CCCC[C@H]1CC[C@@H]2CC(=O)C[C@H]12)OC (some centres not stated) | > 200 | > 200 | 
Cc1cc(C)nc(NS(=O)(=O)c2ccc(Nc3c4ccccc4nc4ncccc34)cc2)n1 |  |  | inactive
CC1(C)Oc2ccc3c4c(c(=O)oc3c2[C@@H](OC(=O)C23CCC(C)(C(=O)O2)C3(C)C)[C@H]1OC(=O)C12CCC(C)(C(=O)O1)C2(C)C)CCCC4 (some centres not stated) | 0.813 | 12 | 
COC(=O)c1c(-c2ccccc2)cc2c3cc(-c4ccccc4)c(C(=O)OC)n3c3ccccc3n12 | > 28.8 | > 28.8 | 
Cc1ccc(C[N+](C)(C)N)cc1C | > 200 | > 200 | 
CN(C)C1C(=O)C(C(=O)NCNCCC(=O)O)=C(O)C2(O)C(=O)C3=C(O)c4c(O)cccc4C(C)(O)C3CC12 (configuration not stated) | > 11.2 | > 11.2 | 
CSc1ccc(NC(=S)NN(C)C)cc1 | > 200 | 93.3 | 

Structure (SMILES) | EC50 [µM] | IC50 [µM] | outcome
C[C@H](CCC1=NCCN1)[C@H]1CC[C@H]2[C@@H]3CC[C@@H]4C[C@H](O)CC[C@]4(C)[C@H]3CC[C@]12C | > 100 | 13.8 | 
CN1C(=O)C(C)(C)C(=O)c2ccccc21 | > 200 | > 200 | 
O=C(O)C1C2CC(C1C(=O)O)C1C2N1S(=O)(=O)c1ccccc1 (configuration not stated) | > 741 | > 741 | 
S=c1nc(Cc2ccc(Cl)cc2)[nH][nH]1 | > 200 | 56.2 | 
O=C1CNc2cc(N3CCCCC3)ccc2N1 | > 200 | 66.1 | 
CCCCCCCCCCCCCCCCOC1OC(CCSSC2OC(OCCCCCCCCCCCCCCCC)C(O)C(O)C2O)C(O)C(O)C1O (configuration not stated) | > 3.24 | > 3.24 | 
CC1=C2CC[C@@]3(C)C(=CCC3O)C2(C)CCC1=O (some centres not stated) |  |  | inactive
C=C1CN(S(=O)(=O)c2ccc(C)cc2)CCCN(CC2CCCCC2)CCCN(S(=O)(=O)c2ccc(C)cc2)C1 | > 46.8 | 1.17 | 
Cn1c(COc2ccc(/C=N/NC(=O)CCC(=O)N/N=C/c3ccc(OCc4c[n+]5ccccc5n4C)cc3)cc2)c[n+]2ccccc12 | 13.5 | 19.1 | 
CO[C@H](C(=O)O[C@H]1C(=O)N2CCC3CCC1C32C)c1ccccc1 (some centres not stated) | > 759 | 501 | 
N#CC1CCCCCCCCCCC(=O)N(CCCl)C1=O (configuration not stated) | > 60.3 | > 60.3 | 
CCn1c2ccccc2c2cc(N=C3C(=O)N(C)c4ccccc43)ccc21 | > 200 | 10.7 | 
Cc1cc(NS(=O)(=O)c2ccc(NC(=O)c3ccc4nc5ccccc5c(Nc5ccc(S(=O)(=O)Nc6cc(C)on6)cc5)c4c3)cc2)no1 | 67.6 | > 100 | 
O=C(C[n+]1ccc2ccccc2c1)c1ccc(O)c(O)c1 |  |  | inactive
CC1=NNC(=O)C1C(C/C(=N/O)c1c[nH]c2ccccc12)C(=O)O (configuration not stated) | > 100 | > 100 | 
CC(C)(C)OC(=O)NC(Cc1ccc(O)cc1)C(=O)N1CCCC1C(=O)O (stereo not drawn) (Boc-Tyr-Pro-OH; configuration not given here) | > 661 | 269 | 
CCOC(=O)C1C(c2ccc(OC)cc2)C(C(=O)OCC)C(O)(C(F)(F)F)OC1(O)C(F)(F)F (configuration not stated) | > 257 | 151 | 
O=C(CN1CCCCC1)c1ccc2c(c1)Cc1cc(C(=O)CN3CCCCC3)ccc1O2 | > 70.8 | 33.1 | 
COc1ccc(C(=O)C(C(=O)C(=O)Nc2nc3ccc(OC)cc3s2)c2ccc(OC)cc2)cc1 (configuration not stated) | > 38 | > 38 | 
COC1/C=C\C=C(/C)C(=O)NC2=CC(=O)C(N)=C(CC(C)CC(OC)C(O)C(C)C=C(C)C1OC(N)=O)C2=O (configuration not stated) | > 2 | 0.0661 | 
